The results in this text go back to paper PMC11755407, “Advancements in drug discovery: integrating CADD tools and drug repurposing for PD-1/PD-L1 axis inhibition” (RSC Advances, 2025).

Assay [1] deals with T1, PD-L1 (Homo sapiens, UniProt Q9NZQ7).
T1 construct: gene CD274; purified recombinant monomeric human PD-L1His (produced in plants); with PD-1 (PD-1Fc chimera)
The assay is described as follows: competitive ELISA of PD-1Fc binding to immobilized PD-L1.

Assay [2] deals with T1, PD-L1. The assay is described as follows: competitive ELISA of PD-1Fc binding to immobilized PD-L1; also partial competition with anti-PD-L1 mAb MIH1 on MDA-MB-231 cells (flow cytometry).

pIC50: −log10 of the molar value.

T1 sequence (Q9NZQ7 19-238 limits assumed): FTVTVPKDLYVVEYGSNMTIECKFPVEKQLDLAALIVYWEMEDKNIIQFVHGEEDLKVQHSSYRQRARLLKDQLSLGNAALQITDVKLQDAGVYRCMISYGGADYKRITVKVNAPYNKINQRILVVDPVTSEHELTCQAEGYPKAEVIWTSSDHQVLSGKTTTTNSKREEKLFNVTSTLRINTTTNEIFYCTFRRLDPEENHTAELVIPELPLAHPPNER
T1 sequence (Q15116 25-288 partner): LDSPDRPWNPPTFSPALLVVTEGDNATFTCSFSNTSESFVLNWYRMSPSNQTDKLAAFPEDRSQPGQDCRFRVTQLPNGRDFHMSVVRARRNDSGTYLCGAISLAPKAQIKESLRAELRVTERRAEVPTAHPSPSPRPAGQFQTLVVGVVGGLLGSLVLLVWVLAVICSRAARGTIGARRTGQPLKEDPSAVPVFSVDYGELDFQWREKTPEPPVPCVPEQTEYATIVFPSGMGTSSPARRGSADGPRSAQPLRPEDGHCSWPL

`Cc1c(C(=O)Nc2ccc(N3C[C@@H](C)O[C@@H](C)C3)nc2)cccc1-c1ccc(OC(F)(F)F)cc1` [compound 28, sonidegib] showed a negative-log IC50 (pIC50) on PD-L1 [1] of 3.32.

PDI-1 gave a pIC50 on PD-L1 [2] of 5.26.
